Eleven molecules from paper PMC10770036, “Novel dual inhibitors of PARP and HDAC induce intratumoral STING-mediated antitumor immunity in triple-negative breast cancer” (Cell Death & Disease, 2024) can be followed below.

One assay concerns RAD51. Kind of assay: Western blot of RAD51 expression in TNBC cells. The class given is cell-based, human. The following applies: alone, 24 h, TNBC cell lines. Here is the method: Western blot analysis was performed as previously described, and all western blot analyses were performed at least three times.
Western blot analysis was performed as previously described. Briefly, whole cell or tissue lysates were prepared using ice-cold Nonidet P-40 buffer mixed with protease and phosphatase inhibitors (Roche, IN, USA) and centrifuged at 14,000 × g at 4 °C for 10 min. The protein lysates were fractionated by sodium dodecyl sulfate–polyacrylamide gel electrophoresis (SDS–PAGE) and transferred to polyvinylidene fluoride (PVDF) membranes (Merck, Darmstadt, Germany). Membranes were incubated in 1× TBST buffer containing 5% nonfat powdered milk at room temperature for 2 h. The indicated primary antibody was incubated with PVDF membranes, followed by a washing step using 1× TBST and a secondary antibody conjugated to HRP. Signal detection was carried out using the Western ECL Substrate kit (Bio-Rad, Hercules, CA, USA). […]

For a further assay, the system named is MCF-7 cells. Kind of assay: MTT cell viability assay, MCF-7. The following applies: Homo sapiens, MCF7, 72 h, read-out: IC50 MCF-7. On the technique in general: Tetrazolium assays rely on reduction of a dye to a coloured formazan, in cell work by metabolically active cells.
Another assay deals with MCF-10A cells. Kind of assay: MTT cell viability assay, MCF-10A. The following applies: Homo sapiens, 72 h, read-out: IC50 MCF-10A.
Another assay concerns MDA-MB-436 cells. Kind of assay: MTT cell viability assay, MDA-MB-436. The following applies: Homo sapiens, MDA-MB-436, 72 h, read-out: IC50 MDA-MB-436.
Another assay concerns MDA-MB-231 cells. Kind of assay: MTT cell viability assay, MDA-MB-231. The conditions noted are these: Homo sapiens, MDA-MB-231, 72 h, read-out: IC50 MDA-MB-231.
The test system of a further assay is MDA-MB-468 cells. Description: MTT cell viability assay, MDA-MB-468. The conditions noted are these: Homo sapiens, MDA-MB-468, 72 h, read-out: IC50 MDA-MB-468.
The target of the next assay is T1, PARP1 (Homo sapiens, UniProt P09874).
T1 construct: purchased BPS Bioscience 80580
T1 sequence (P09874 whole entry): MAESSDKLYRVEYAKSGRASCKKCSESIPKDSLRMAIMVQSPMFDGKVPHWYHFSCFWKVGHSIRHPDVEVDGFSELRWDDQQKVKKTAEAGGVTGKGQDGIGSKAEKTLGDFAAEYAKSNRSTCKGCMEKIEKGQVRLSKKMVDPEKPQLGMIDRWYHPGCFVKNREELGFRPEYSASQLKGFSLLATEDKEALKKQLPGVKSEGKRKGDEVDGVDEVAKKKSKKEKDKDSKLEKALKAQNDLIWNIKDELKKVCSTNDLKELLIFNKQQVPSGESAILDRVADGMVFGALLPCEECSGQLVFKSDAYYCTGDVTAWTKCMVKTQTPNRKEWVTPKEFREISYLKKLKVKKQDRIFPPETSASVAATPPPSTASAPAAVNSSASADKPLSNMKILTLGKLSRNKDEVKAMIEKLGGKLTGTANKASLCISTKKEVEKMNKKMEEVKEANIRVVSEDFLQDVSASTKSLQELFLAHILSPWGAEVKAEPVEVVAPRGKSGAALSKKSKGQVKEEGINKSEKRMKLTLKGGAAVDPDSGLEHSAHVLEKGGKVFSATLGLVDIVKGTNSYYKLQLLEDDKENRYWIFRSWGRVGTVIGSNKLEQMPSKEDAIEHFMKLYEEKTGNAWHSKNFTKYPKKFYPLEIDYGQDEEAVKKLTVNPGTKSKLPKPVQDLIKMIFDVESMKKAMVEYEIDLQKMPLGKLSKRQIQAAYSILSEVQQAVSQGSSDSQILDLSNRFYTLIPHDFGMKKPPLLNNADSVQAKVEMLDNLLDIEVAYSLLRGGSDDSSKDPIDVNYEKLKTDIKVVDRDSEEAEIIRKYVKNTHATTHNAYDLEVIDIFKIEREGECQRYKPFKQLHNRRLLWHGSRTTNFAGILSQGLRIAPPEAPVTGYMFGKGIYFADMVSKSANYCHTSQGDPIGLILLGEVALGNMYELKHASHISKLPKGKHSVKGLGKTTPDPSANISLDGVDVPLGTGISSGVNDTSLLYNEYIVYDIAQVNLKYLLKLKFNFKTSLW
Kind of assay: PARP1 enzymatic inhibition assay (PARP1 Colorimetric Assay Kit). Format: biochemical. Here is the method:
(§1) Briefly, the 1× histone mixture was added to each well and incubated overnight at 4 °C. Each well was washed three times with 200 µL 1× TBST buffer and filled with 200 µL Blocking buffer at room temperature for 90 min. Then, each well was filled with 25 µL of PARP master mixture (5 μL activated DNA + 2.5 μL 10× PARP Assay mixture + 2.5 μL 10× PARP buffer + 15 μL distilled water). Next, 5 µL of the compound of different concentrations was added to each well, and PARP enzyme was added and incubated at room temperature for 1 h. Next, streptavidin HRP solution was added and incubated at room temperature for 30 min. After adding 100 µL of colorimetric HRP substrate to each well, the plate was incubated until a blue color developed in the positive well, which contained PARP enzyme without inhibitors. The reaction was then quenched with 2 M sulfuric acid, and absorbance at 450 nm was measured using a microplate reader (BioTek, Winooski, VT, USA). After calculating the inhibition rate, the IC50 value was determined.

In the next assay the target is T2, PARP2 (Homo sapiens, UniProt Q9UGN5).
T2 construct: purchased BPS Bioscience 80581
T2 sequence (Q9UGN5 whole entry): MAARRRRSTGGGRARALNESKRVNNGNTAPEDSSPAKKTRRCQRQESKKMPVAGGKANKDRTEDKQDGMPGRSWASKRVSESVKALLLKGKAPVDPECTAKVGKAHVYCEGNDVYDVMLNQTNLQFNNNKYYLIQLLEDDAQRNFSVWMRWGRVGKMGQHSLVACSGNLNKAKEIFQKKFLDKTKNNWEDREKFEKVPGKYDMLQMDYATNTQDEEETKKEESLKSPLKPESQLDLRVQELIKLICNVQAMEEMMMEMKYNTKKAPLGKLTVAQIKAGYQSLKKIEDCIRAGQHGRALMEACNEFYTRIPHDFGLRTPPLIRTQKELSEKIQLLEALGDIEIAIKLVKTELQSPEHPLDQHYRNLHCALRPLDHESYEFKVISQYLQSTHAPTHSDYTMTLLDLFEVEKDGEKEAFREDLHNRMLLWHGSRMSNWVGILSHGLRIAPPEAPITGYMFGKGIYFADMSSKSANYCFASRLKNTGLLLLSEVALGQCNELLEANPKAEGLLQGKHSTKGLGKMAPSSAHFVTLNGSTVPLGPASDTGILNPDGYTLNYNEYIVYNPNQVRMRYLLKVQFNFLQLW
Description: PARP2 enzymatic inhibition assay (PARP2 Colorimetric Assay Kit). Format: biochemical. Here is the method:
as §1

For the next assay, the target named is T3, recombinant HDAC1 (Homo sapiens, UniProt Q13547).
T3 construct: purchased Active Motif
T3 sequence (Q13547 whole entry): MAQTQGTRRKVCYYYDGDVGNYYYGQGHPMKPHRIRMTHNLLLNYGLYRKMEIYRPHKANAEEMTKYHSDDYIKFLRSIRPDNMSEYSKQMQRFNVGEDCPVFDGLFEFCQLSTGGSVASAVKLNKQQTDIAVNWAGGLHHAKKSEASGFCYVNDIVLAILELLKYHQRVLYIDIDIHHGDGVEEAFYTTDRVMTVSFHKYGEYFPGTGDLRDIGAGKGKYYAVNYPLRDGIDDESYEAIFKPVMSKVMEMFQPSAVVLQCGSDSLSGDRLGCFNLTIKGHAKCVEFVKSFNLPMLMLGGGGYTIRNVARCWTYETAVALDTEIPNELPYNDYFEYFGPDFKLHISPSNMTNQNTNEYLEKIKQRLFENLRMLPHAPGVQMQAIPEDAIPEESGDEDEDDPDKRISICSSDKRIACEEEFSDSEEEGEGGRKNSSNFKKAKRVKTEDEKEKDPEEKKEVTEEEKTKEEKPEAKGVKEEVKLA
Kind of assay: HDAC1 inhibition assay (Ac-peptide-AMC fluorescence). The class given is biochemical. Here is the method: (§2) The in vitro HDAC inhibition assays were carried out by Sundia MediTech Co. Ltd. in Shanghai, China. […] Reactions were stopped with trypsin, and the samples were incubated for another 90 min at 37 °C. […] IC50 values were obtained using GraphPad Prism software.

The target in the next assay is T4, recombinant HDAC6 (Homo sapiens, UniProt Q9UBN7).
T4 construct: purchased BPS Bioscience
T4 sequence (Q9UBN7 1-1215): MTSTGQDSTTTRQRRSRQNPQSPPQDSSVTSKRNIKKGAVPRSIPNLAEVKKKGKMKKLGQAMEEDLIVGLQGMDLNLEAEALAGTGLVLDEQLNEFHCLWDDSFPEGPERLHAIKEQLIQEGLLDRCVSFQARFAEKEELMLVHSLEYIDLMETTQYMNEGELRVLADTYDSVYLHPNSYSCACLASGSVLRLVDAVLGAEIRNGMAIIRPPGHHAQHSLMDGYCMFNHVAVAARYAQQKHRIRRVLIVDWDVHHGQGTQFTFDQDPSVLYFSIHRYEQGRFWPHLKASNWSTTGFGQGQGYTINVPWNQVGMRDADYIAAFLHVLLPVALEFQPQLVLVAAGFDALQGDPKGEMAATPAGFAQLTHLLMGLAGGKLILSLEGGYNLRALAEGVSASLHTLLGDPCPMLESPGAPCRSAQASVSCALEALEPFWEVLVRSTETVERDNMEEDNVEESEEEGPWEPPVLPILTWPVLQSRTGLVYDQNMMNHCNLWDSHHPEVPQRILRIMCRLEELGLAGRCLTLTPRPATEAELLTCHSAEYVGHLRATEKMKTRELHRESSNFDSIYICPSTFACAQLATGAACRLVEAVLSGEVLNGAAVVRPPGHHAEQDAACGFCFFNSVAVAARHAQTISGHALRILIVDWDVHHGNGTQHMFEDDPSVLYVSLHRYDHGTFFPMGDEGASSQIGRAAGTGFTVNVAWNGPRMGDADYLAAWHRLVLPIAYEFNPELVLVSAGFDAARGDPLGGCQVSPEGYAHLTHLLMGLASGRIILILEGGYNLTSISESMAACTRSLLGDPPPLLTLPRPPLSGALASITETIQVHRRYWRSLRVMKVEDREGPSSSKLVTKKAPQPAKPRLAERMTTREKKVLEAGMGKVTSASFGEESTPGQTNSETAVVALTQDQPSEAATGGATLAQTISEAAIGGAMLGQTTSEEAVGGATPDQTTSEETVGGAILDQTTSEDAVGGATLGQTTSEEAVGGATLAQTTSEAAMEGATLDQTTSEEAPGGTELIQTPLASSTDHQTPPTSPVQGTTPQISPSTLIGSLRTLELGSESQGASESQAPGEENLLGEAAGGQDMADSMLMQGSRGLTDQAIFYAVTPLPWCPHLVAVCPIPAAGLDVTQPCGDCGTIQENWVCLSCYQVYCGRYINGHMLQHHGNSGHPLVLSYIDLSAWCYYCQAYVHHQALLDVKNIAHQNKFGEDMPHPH
Kind of assay: HDAC6 inhibition assay (Ac-peptide-AMC fluorescence). Format: biochemical. Here is the method: as §2

Description for MCF-10A cells: (§3) The viability assay was measured by a 3-(4,5-dimethylthiazol-2-yl)−2,5-diphenyltetrazolium bromide (MTT) assay.
(§4) In brief, cells were seeded at a density of 6,000 cells in 96-well plates and cultured overnight. […] After aspiration of the medium, the formazan crystals were dissolved in 100 μL of DMSO. The absorbance at 490 nm was measured using a microplate reader (BioTek). All these analyses were performed at least three times.
Description for MCF-7 cells: as §3, §4
Description for MDA-MB-231 cells: as §3, §4
Description for MDA-MB-436 cells: as §3, §4
Description for MDA-MB-468 cells: as §3, §4

For `Nc1cc(F)ccc1NC(=O)c1ccc(CNC(=O)/C=C/c2cccnc2)cc1` [Chidamide, chidamide, reference compound], the RAD51 expression result in the assay on RAD51 is on record as “reduced the expression of RAD51”. Further, the IC50 is 4600 ± 780 nM in the assay on MCF-7 cells; > 50000 nM in the assay with MCF-10A cells; 4150 ± 920 nM in the assay on MDA-MB-436 cells; 2340 ± 920 nM in the assay with MDA-MB-231 cells; 750 ± 220 nM in the assay on MDA-MB-468 cells.

Consider `Nc1ccccc1NC(=O)/C=C/c1ccc(CN2CCN(C(=O)c3cc(Cc4n[nH]c(=O)c5ccccc45)ccc3F)CC2)cc1` [Compound B101], for which the IC50 against PARP1 is 13.2 nM; on PARP2 it was 4.08 nM; at recombinant HDAC1, 120 nM; at recombinant HDAC6, > 10000 nM; in the assay on MCF-7 cells, 3620 ± 1210 nM; in the assay with MCF-10A cells it was 1450 ± 90 nM. Further, the results for the half-inhibitory concentration (IC50) in the assay on MDA-MB-436 cells, in the assay with MDA-MB-231 cells and with MDA-MB-468 cells were 530 ± 80 nM, 410 ± 10 nM and 300 ± 50 nM, respectively.

Consider `Nc1ccccc1NC(=O)Cc1ccc(CN2CCN(C(=O)c3cc(Cc4n[nH]c(=O)c5ccccc45)ccc3F)CC2)cc1` [Compound B201], for which the IC50 was 7.55 nM on PARP1; 13.8 nM at PARP2; 60 nM at recombinant HDAC1; > 10000 nM on recombinant HDAC6; 5300 ± 1230 nM in the assay with MCF-7 cells; 14000 ± 2450 nM in the assay on MCF-10A cells. Also, the 50% inhibitory concentration (IC50) with MDA-MB-436 cells was found to be 970 ± 730 nM; with MDA-MB-231 cells, 380 ± 80 nM; in the assay with MDA-MB-468 cells it was 1350 ± 550 nM.

Consider `Nc1cc(F)ccc1NC(=O)Cc1ccc(CN2CCN(C(=O)c3cc(Cc4n[nH]c(=O)c5ccccc45)ccc3F)CC2)cc1` [Compound B202], for which the IC50 at PARP1 was 10.3 nM; against PARP2 it was 34.2 nM; on recombinant HDAC1, 160 nM; on recombinant HDAC6 it was > 10000 nM; in the assay on MCF-7 cells, 15600 ± 3520 nM; in the assay with MCF-10A cells, 9830 ± 750 nM. The IC50 with MDA-MB-436 cells was 650 ± 140 nM; in the assay with MDA-MB-231 cells it was 460 ± 120 nM; with MDA-MB-468 cells, 560 ± 100 nM.

Take `Nc1ccccc1NC(=O)CCc1ccc(CN2CCN(C(=O)c3cc(Cc4n[nH]c(=O)c5ccccc45)ccc3F)CC2)cc1` [Compound B301]: the half-inhibitory concentration (IC50) at PARP1 is 11.4 nM; against PARP2, 70.4 nM; at recombinant HDAC1 it was > 10000 nM; at recombinant HDAC6, > 10000 nM; with MCF-7 cells, 3530 ± 1110 nM; in the assay with MCF-10A cells it was 30000 ± 9800 nM. Further, the IC50 in the assay with MDA-MB-436 cells is 1730 ± 820 nM; in the assay on MDA-MB-231 cells, 1960 ± 630 nM; in the assay on MDA-MB-468 cells, 1750 ± 370 nM.

For the molecule `Nc1ccccc1NC(=O)CN1CCN(C(=O)c2cc(Cc3n[nH]c(=O)c4ccccc34)ccc2F)CC1` [Compound B401], the IC50 at recombinant HDAC1 and on recombinant HDAC6 was > 10000 nM each time.

As to `Nc1cc(F)ccc1NC(=O)CN1CCN(C(=O)c2cc(Cc3n[nH]c(=O)c4ccccc34)ccc2F)CC1` [Compound B402], the IC50 at recombinant HDAC1 and on recombinant HDAC6 was > 10000 nM throughout.

On to `Nc1ccccc1NC(=O)CCN1CCN(C(=O)c2cc(Cc3n[nH]c(=O)c4ccccc34)ccc2F)CC1` [Compound B501], for which the IC50 at recombinant HDAC1 and on recombinant HDAC6 was > 10000 nM each time.

As for `Nc1cc(F)ccc1NC(=O)CCN1CCN(C(=O)c2cc(Cc3n[nH]c(=O)c4ccccc34)ccc2F)CC1` [Compound B502], the IC50 at recombinant HDAC1 and on recombinant HDAC6 was > 10000 nM each time.

With `Nc1ccccc1NC(=O)CCCN1CCN(C(=O)c2cc(Cc3n[nH]c(=O)c4ccccc34)ccc2F)CC1` [Compound B601], the half-inhibitory concentration (IC50) at recombinant HDAC1 and on recombinant HDAC6 was > 10000 nM each time.

Turning to `Nc1cc(F)ccc1NC(=O)CCCN1CCN(C(=O)c2cc(Cc3n[nH]c(=O)c4ccccc34)ccc2F)CC1` [Compound B602], the IC50 on recombinant HDAC1 and on recombinant HDAC6 was > 10000 nM each time.

What is called IC50 is the concentration needed to halve the response being measured.
